Tested on: Primary Rat cortical astrocytes
Experiment: Scratch wound assay, astrocytes
Type: cell-based
Protocol: Primary Rat cortical astrocytes were purchased from Lonza (Walkersvelle Inc., MA, USA). Cells were plated in culture flasks at a density of 1.106-3.106 cells/ml, and maintained at 37° C. and […], in Astrocyte Growth Medium Bulletkit™ (Lonza Walkersville Inc., MA, USA). When astrocyte cultures reached confluence, cells were trypsinized and replated at 6.105 cells/ml onto 24 well ImageLock™ plate (Essen Instruments, Mich., USA).
Scratch wound assays are commonly used to assess the effects of drugs and drug candidates on the cellular proliferation and/or migration associated with wound closing. The IncuCyte™ system (Essen Instruments, Mich., USA), an automated imaging platform, provides ongoing, real-time images and quantitative data generated throughout the wound-closing process. […] Wound closure can be automatically monitored using the wound confluence (% confluence). […]
The calculation of the area under the curve (AUC) of the % confluence function of the time gave a quantitative measurement of compounds efficacy on the scratch wound closing. […] The percentage of inhibition was calculated from the AUCs at each dose in comparison with the AUCs of the control wells (1% DMSO). Concentration-response curves were represented and the concentrations at the inflexion point (IP) were calculated. […]

For `Cc1ccc(NC(=O)c2cccc(C(F)(F)F)c2)cc1-c1ccc(O)c(NC=O)c1` [Example 133], the IC50 (Rattus norvegicus, Astrocyte, inflexion point, from AUC of % wound confluence, read-out: Scratch Assay Astrocytes IP) was 5 µM and the “Scratch Assay Astrocytes max inhibition in %” value (value in parentheses) was 50%.
